Data published in ChEMBL document CHEMBL3885861, “Open TG-GATES”.

Species on record: Rattus norvegicus
Assay: Open TG-GATES - Regimen: Daily Repeat
Type: toxicity, organism-based, Sprague-Dawley
Parameters: regimen Daily Repeat, gender Male, age 6 weeks
Details: in vivo, po, 10 mg/kg, route gavage, dose level Low; for APTT / Bas / Eos / Fbg / Hb / Ht / Lym / MCH / MCHC / MCV / Mono / Neu / PT / Plat / RBC / Ret / WBC: tissue Blood; for KIDNEY_L / KIDNEY_R / KIDNEY_TOTAL: tissue Kidney; for LIVER: tissue Liver; for A/G / ALP / ALT / AST / BUN / CRE / Ca / Cl / DBIL / GLC / IP / K / LDH / Na / PL / RALB / TBIL / TC / TG / TP / gamma-GTP: tissue Plasma

OCCOCCN1CCN(C(c2ccccc2)c2ccc(Cl)cc2)CC1 (configuration not stated) [HYDROXYZINE]
TERMINAL_BW (72 h, time 3 day): 228.1 g | APTT (72 h, time 3 day): 16.3 s | Bas (72 h, time 3 day): 0% | Eos (72 h, time 3 day): 1% | Fbg (72 h, time 3 day): 261.4 mg/dL | Hb (72 h, time 3 day): 13 g/dL | Ht (72 h, time 3 day): 39.4% | Lym (72 h, time 3 day): 75.6% | MCH (72 h, time 3 day): 21.8 pg | MCHC (72 h, time 3 day): 33% | MCV (72 h, time 3 day): 65.9 fL | Mono (72 h, time 3 day): 2.6% | Neu (72 h, time 3 day): 20.2% | PT (72 h, time 3 day): 16 s | Plat (72 h, time 3 day): 110.5 x10_4/uL | RBC (72 h, time 3 day): 598 x10_4/ul | Ret (72 h, time 3 day): 7.3% | WBC (72 h, time 3 day): 96.2 x10_2/uL | KIDNEY_L (72 h, time 3 day): 1 g | KIDNEY_R (72 h, time 3 day): 1 g | KIDNEY_TOTAL (72 h, time 3 day): 2 g | LIVER (72 h, time 3 day): 10.8 g | A/G (72 h, time 3 day): 0.8 | ALP (72 h, time 3 day): 1662 IU/L | ALT (72 h, time 3 day): 51.2 IU/L | AST (72 h, time 3 day): 82.4 IU/L | BUN (72 h, time 3 day): 16.2 mg/dL | CRE (72 h, time 3 day): 0.2 mg/dL | Ca (72 h, time 3 day): 10.8 mg/dL | Cl (72 h, time 3 day): 105.6 meq/L | DBIL (72 h, time 3 day): 0.018 mg/dL | GLC (72 h, time 3 day): 182 mg/dL | IP (72 h, time 3 day): 7.7 mg/dL | K (72 h, time 3 day): 4 meq/L | LDH (72 h, time 3 day): 98.8 IU/L | Na (72 h, time 3 day): 142.8 meq/L | PL (72 h, time 3 day): 139 mg/dL | RALB (72 h, time 3 day): 2.6 g/dL | TBIL (72 h, time 3 day): 0.054 mg/dL | TC (72 h, time 3 day): 71.6 mg/dL | TG (72 h, time 3 day): 76 mg/dL | TP (72 h, time 3 day): 5.6 g/dL | gamma-GTP (72 h, time 3 day): 0.8 IU/L | TERMINAL_BW ([…], time 7 day): 259.3 g | TERMINAL_BW ([…], time 14 day): 323.3 g | TERMINAL_BW ([…], time 28 day): 416.4 g | APTT ([…], time 7 day): 17 s | Bas ([…], time 7 day): 0% | Eos ([…], time 7 day): 1% | Fbg ([…], time 7 day): 263 mg/dL | Hb ([…], time 7 day): 13.8 g/dL | Ht ([…], time 7 day): 41.3% | Lym ([…], time 7 day): 80.6% | MCH ([…], time 7 day): 21.5 pg | MCHC ([…], time 7 day): 33.5% | MCV ([…], time 7 day): 64.4 fL | Mono ([…], time 7 day): 1.8% | Neu ([…], time 7 day): 16.2% | PT ([…], time 7 day): 15.7 s | Plat ([…], time 7 day): 117.5 x10_4/uL | RBC ([…], time 7 day): 643 x10_4/ul | Ret ([…], time 7 day): 5.9% | WBC ([…], time 7 day): 88.4 x10_2/uL | APTT ([…], time 14 day): 18.1 s | Bas ([…], time 14 day): 0% | Eos ([…], time 14 day): 0.8% | Fbg ([…], time 14 day): 266.4 mg/dL | Hb ([…], time 14 day): 14.2 g/dL | Ht ([…], time 14 day): 41.7% | Lym ([…], time 14 day): 81.2% | MCH ([…], time 14 day): 20.7 pg | MCHC ([…], time 14 day): 34% | MCV ([…], time 14 day): 60.9 fL | Mono ([…], time 14 day): 2.4% | Neu ([…], time 14 day): 15% | PT ([…], time 14 day): 15.7 s | Plat ([…], time 14 day): 111 x10_4/uL | RBC ([…], time 14 day): 685.8 x10_4/ul | Ret ([…], time 14 day): 4.3% | WBC ([…], time 14 day): 106.7 x10_2/uL | APTT ([…], time 28 day): 18.3 s | Bas ([…], time 28 day): 0% | Eos ([…], time 28 day): 1% | Fbg ([…], time 28 day): 297.2 mg/dL | Hb ([…], time 28 day): 15.4 g/dL | Ht ([…], time 28 day): 43.7% | Lym ([…], time 28 day): 80.4% | MCH ([…], time 28 day): 20.6 pg | MCHC ([…], time 28 day): 35.2% | MCV ([…], time 28 day): 58.4 fL | Mono ([…], time 28 day): 2% | Neu ([…], time 28 day): 15% | PT ([…], time 28 day): 15.9 s | Plat ([…], time 28 day): 90.9 x10_4/uL | RBC ([…], time 28 day): 748.8 x10_4/ul | Ret ([…], time 28 day): 2.6% | WBC ([…], time 28 day): 105.9 x10_2/uL | KIDNEY_L ([…], time 7 day): 1.1 g | KIDNEY_R ([…], time 7 day): 1.1 g | KIDNEY_TOTAL ([…], time 7 day): 2.1 g | KIDNEY_L ([…], time 14 day): 1.3 g | KIDNEY_R ([…], time 14 day): 1.3 g | KIDNEY_TOTAL ([…], time 14 day): 2.7 g | KIDNEY_L ([…], time 28 day): 1.4 g | KIDNEY_R ([…], time 28 day): 1.4 g | KIDNEY_TOTAL ([…], time 28 day): 2.8 g | LIVER ([…], time 7 day): 12.6 g | LIVER ([…], time 14 day): 14.7 g | LIVER ([…], time 28 day): 16.8 g | A/G ([…], time 7 day): 0.9 | ALP ([…], time 7 day): 1602.2 IU/L | ALT ([…], time 7 day): 41 IU/L | AST ([…], time 7 day): 65.8 IU/L | BUN ([…], time 7 day): 17.4 mg/dL | CRE ([…], time 7 day): 0.2 mg/dL | Ca ([…], time 7 day): 11.1 mg/dL | Cl ([…], time 7 day): 106 meq/L | DBIL ([…], time 7 day): 0.018 mg/dL | GLC ([…], time 7 day): 189 mg/dL | IP ([…], time 7 day): 7.2 mg/dL | K ([…], time 7 day): 4.3 meq/L | LDH ([…], time 7 day): 66.2 IU/L | Na ([…], time 7 day): 142.6 meq/L | PL ([…], time 7 day): 158.2 mg/dL | RALB ([…], time 7 day): 2.7 g/dL | TBIL ([…], time 7 day): 0.052 mg/dL | TC ([…], time 7 day): 72.6 mg/dL | TG ([…], time 7 day): 118.4 mg/dL | TP ([…], time 7 day): 5.9 g/dL | gamma-GTP ([…], time 7 day): 0.8 IU/L | A/G ([…], time 14 day): 0.8 | ALP ([…], time 14 day): 1484.2 IU/L | ALT ([…], time 14 day): 40.8 IU/L | AST ([…], time 14 day): 67.2 IU/L | BUN ([…], time 14 day): 15.4 mg/dL | CRE ([…], time 14 day): 0.2 mg/dL | Ca ([…], time 14 day): 10.6 mg/dL | Cl ([…], time 14 day): 103.6 meq/L | DBIL ([…], time 14 day): 0.016 mg/dL | GLC ([…], time 14 day): 184.6 mg/dL | IP ([…], time 14 day): 7.3 mg/dL | K ([…], time 14 day): 4 meq/L | LDH ([…], time 14 day): 86.2 IU/L | Na ([…], time 14 day): 141.6 meq/L | PL ([…], time 14 day): 163 mg/dL | RALB ([…], time 14 day): 2.7 g/dL | TBIL ([…], time 14 day): 0.052 mg/dL | TC ([…], time 14 day): 74.8 mg/dL | TG ([…], time 14 day): 142.4 mg/dL | TP ([…], time 14 day): 6 g/dL | gamma-GTP ([…], time 14 day): 0.6 IU/L | A/G ([…], time 28 day): 0.8 | ALP ([…], time 28 day): 1346.6 IU/L | ALT ([…], time 28 day): 41.4 IU/L | AST ([…], time 28 day): 69.6 IU/L | BUN ([…], time 28 day): 17.4 mg/dL | CRE ([…], time 28 day): 0.2 mg/dL | Ca ([…], time 28 day): 10.6 mg/dL | Cl ([…], time 28 day): 105 meq/L | DBIL ([…], time 28 day): 0.012 mg/dL | GLC ([…], time 28 day): 196.8 mg/dL | IP ([…], time 28 day): 6.8 mg/dL | K ([…], time 28 day): 4 meq/L | LDH ([…], time 28 day): 100.8 IU/L | Na ([…], time 28 day): 142.6 meq/L | PL ([…], time 28 day): 154.8 mg/dL | RALB ([…], time 28 day): 2.8 g/dL | TBIL ([…], time 28 day): 0.05 mg/dL | TC ([…], time 28 day): 76.8 mg/dL | TG ([…], time 28 day): 113.4 mg/dL | TP ([…], time 28 day): 6.3 g/dL | gamma-GTP ([…], time 28 day): 0.8 IU/L
